Laboratory results: the CheMixHub viscosity set

Experiment: xn = mol fraction of the nth substance listed

NC1CCCCC1 + CCCO
viscosity [mPa·s], 101 kPa
Details	293.15 K	298.15 K	303.15 K
x1 = 0.0549	2.253	2.004	1.773
x1 = 0.102	2.29	2.036	1.803
x1 = 0.1983	2.392	2.12	1.871
x1 = 0.3117	2.512	2.213	1.946
x1 = 0.3529	2.548	2.241	1.968
x1 = 0.4031	2.578	2.266	1.985
x1 = 0.4387	2.588	2.274	1.996
x1 = 0.4926	2.589	2.271	1.999
x1 = 0.5491	2.568	2.261	1.992
x1 = 0.6111	2.534	2.229	1.964
x1 = 0.6604	2.485	2.19	1.928
x1 = 0.704	2.454	2.168	1.91
x1 = 0.7984	2.349	2.078	1.837
x1 = 0.8844	2.241	1.991	1.766
x1 = 0.9389	2.197	1.955	1.735

CCCCn1cc[n+](C)c1.COP(=O)([O-])OC + CCCCn1cc[n+](C)c1.O=S(=O)([N-]S(=O)(=O)C(F)(F)F)C(F)(F)F
Details	viscosity [mPa·s]
298.15 K, 100 kPa, x2 = 0.25	432.5

CC(O)CO (stereo not given) + CN1CCCC1=O
101.33 kPa
Details	viscosity [mPa·s]
298.15 K, x2 = 0.03556	37.57
298.15 K, x2 = 0.09927	27.77
298.15 K, x2 = 0.195	18.05
298.15 K, x2 = 0.3013	11.78
298.15 K, x2 = 0.4032	8.207
298.15 K, x2 = 0.5025	5.965
298.15 K, x2 = 0.5936	4.558
298.15 K, x2 = 0.6967	3.452
298.15 K, x2 = 0.7994	2.682
298.15 K, x2 = 0.9144	2.042
298.15 K, x2 = 0.942	1.918
308.15 K, x2 = 0.05805	19.68
308.15 K, x2 = 0.1023	16.23
308.15 K, x2 = 0.1977	11.09
308.15 K, x2 = 0.2949	8.059
308.15 K, x2 = 0.407	5.667
308.15 K, x2 = 0.5051	4.3
308.15 K, x2 = 0.5903	3.441
308.15 K, x2 = 0.7066	2.66
308.15 K, x2 = 0.7992	2.172
308.15 K, x2 = 0.8842	1.81
308.15 K, x2 = 0.9388	1.623
318.15 K, x2 = 0.05313	12.45
318.15 K, x2 = 0.1009	10.51
318.15 K, x2 = 0.1905	7.664
318.15 K, x2 = 0.2992	5.559
318.15 K, x2 = 0.4025	4.21
318.15 K, x2 = 0.5017	3.319
318.15 K, x2 = 0.5999	2.697
318.15 K, x2 = 0.6946	2.204
318.15 K, x2 = 0.7967	1.805
318.15 K, x2 = 0.8916	1.507
318.15 K, x2 = 0.9393	1.378

NC1CCCCC1 + CCCCOCCO
298.15 K, 101 kPa
Details	viscosity [mPa·s]
x1 = 0.1169	2.872
x1 = 0.2295	3.006
x1 = 0.338	3.059
x1 = 0.4427	3.069
x1 = 0.5437	3.011
x1 = 0.6412	2.872
x1 = 0.7355	2.697
x1 = 0.8266	2.447
x1 = 0.9147	2.09

CCCCCCCCCCCCCCO + CC(C)[C@@H]1CC[C@@H](C)C[C@H]1O
100 kPa, x1 = 0.333
Details	viscosity [mPa·s]
293.15 K	44.69
298.15 K	31.86
303.15 K	23.35
308.15 K	17.54
313.15 K	13.47
318.15 K	10.53
323.15 K	8.38
